≈ marks a conversion by molar mass, not a printed value. Like-named read-outs stand apart in the source and are kept apart here.
Columns and labels:
[1] = molecular target: T1, recombinant human mGlu7 receptor (FAST-0154C) (Homo sapiens, UniProt Q14831); test: NAM mGlu7 activity on CHO-K1 cell line, cAMP HTRF (EuroscreenFast protocol); format: cell-based; details: CHO-K1 human mGlu7, agonist L-AP4 at EC80
T1 construct: host or cells: CHO-K1
From the text: with inducible expression of human mGlu7 receptor. […]
2.2. NAM mGlu7 receptor activity on CHO-K1 cell line according to EuroscreenFast protocol
ALX-065 and ALX-171 were testing for negative allosteric modulator (NAM) activity on alternative […]
mGlu7 cell line (recombinant human mGlu7 receptor (FAST-0154C) using cAMP HTRF functional assay) […]
by EuroscreenFast company according to the provided methodology.
Receptor Accession Cell line Reference Reference
Number agonist antagonist
Compounds were tested for NAM activity at the human mGlu7 receptor (FAST-0154C) in dose […]
response and in duplicates (range concentration: 1 nM – 25 µM) […]
cAMP HTRF assay for Gi coupled receptor
CHO-K1 cells expressing recombinant human mGlu7 receptor (FAST-0154C) grown prior to the test […]
inmedia without antibiotic are detached by gentle flushing with PBS-EDTA (5 mM EDTA), recovered […]
by centrifugation and resuspended in assay buffer (KRH: 5 mM KCl, 1.25 mM MgSO4, 124 mM NaCl, […]
25 mM HEPES, 13.3 mM Glucose, 1.25 mM KH2PO4, 1.45 mM CaCl2, 0.5 g/L BSA, supplemented with 1 […]
Dose response curves are performed in parallel with the reference compounds.
For antagonist/NAM test (96 well): 12 µl of cells are mixed with 6 µl of the test compound at increasing concentrations and then incubated 10 min. Thereafter 6 µl of the mix of the forskolin and reference agonist is added at a final concentration corresponding to the historical EC80. The plates are then incubated for 30 min at room temperature. After addition of the lysis buffer and 1 hour incubation, cAMP concentrations are estimated, according to the manufacturer specification, with the HTRF kit. […]

[2] = Kinetic solubility assay in HBSS buffer; format: physicochemical; details: aqueous buffer, kinetic from dmso stock; Hanks-HEPES (HBSS buffer), pH 7.4; read-out: KS (kinetic solubility)
Protocol: The kinetic solubility assay was performed to determine the solubility of the compounds in the in vitro assay conditions. The assay investigated the solubility based on the precipitation process in the HBSS buffer. For the preparation of the assay buffer, the following compounds were dissolved in 800 mL purified water: • − 130 mM sodium chloride, NaCl (7.600 g); • − 5.4 mM potassium chloride, KCl (0.403 g); • − 0.8 mM magnesium sulfate, MgSO4 × 7H2O (0.197 g); • − 0.9 mM sodium phosphate monobasic, NaH2PO4 × 2H2O (0.140 g); • − 25 mM D-glucose (4.500 g); • − 20 mM HEPES sodium salt (5.210 g).
The buffer was adjusted to pH 7.4, and the following compound was added to the mixture: • − 1.8 mM calcium chloride, CaCl2 × 2H2O (0.265 g).
The total volume was adjusted to 1000 mL.
The investigated compounds were diluted (in triplicate) with the HBSS buffer at pH 7.4 to a final concentration of 500 μM.
The mixture was shaken on a filter plate at 500 rpm for 1.5 h at RT. After incubation, the filter plate was placed inside a vacuum manifold and filtrated. Samples were collected and the concentration of the filtrate was determined spectrophotometrically by measuring the UV–VIS absorption spectrum. Concentrations were calculated based on equations resulting from the calibration curves (in duplicates, 8 calibration points, dilution Factor ×2, 500 µM → 3.91 µM, including blank sample).

[3] = Metabolic stability in mouse microsomal fraction; format: in vitro ADME; details: 1 µM, mouse microsomes 0.3 mg/mL, NADPH-regenerating system
Protocol: A metabolic stability assay was performed using a mouse microsomal fraction (phase I of metabolism) obtained from XenoTech (Kansas City, MO, USA). Compounds for metabolic stability testing were prepared as 10 mM stock solutions in DMSO. Compounds were incubated in triplicate at a 1 µM initial concentration with the microsomal fraction in the presence of NRS (NADPH-regenerating system, 1.3 mM). The final microsomal incubation (0.3 mg/mL) contained the components mentioned below in a pH 7.4 phosphate buffer. Control incubations were conducted without cofactors. The reference compound verapamil was used as a positive control. Incubations were carried out for 1 h on 96-well plates using a heated (+37 °C) orbital shaker (350 rpm). After incubation, the reaction was quenched through the addition of cold acetonitrile. The plate containing the samples was centrifuged at 2000 rpm for 15 min at 4 °C. The supernatants were analyzed using LC–MS.
The HPLC–MS consisted of a Dionex, Ultimate 3000 HPLC, and a Bruker Daltonics amaZon SL mass spectrometer (ESI-IT). The conditions were as follows: Column HPLC Ascentis Express C18 (5 cm × 2.1 mm, 2.7 µm) and an injection volume of 20 µL. An acetonitrile gradient was used with 0.1% formic acid in water at a constant flow rate of 1 mL/min. The programming was as follows: 0–0.5 min 5% ACN, 0.5–3.0 increase of 5–95%, 3.0–3.3 remaining at 95% ACN, 3.3–3.4 min decrease of 95–5% ACN, and 3.4–4.0 min 5% ACN. Samples were analyzed in a single-ion monitoring scan mode in positive mode. The conditions of the main parameters were as follows: a trap drive of 48.2, capillary exit voltage of 140.0 V, dry temperature (set) of 300 °C, nebulizer pressure (set) of 40.00 psi, dry gas flow (set) of 9.00 L/min HV capillary voltage of −4500 V, HV end-plate offset voltage of −500 V.
The percent loss of compounds was calculated through the normalization of the peak area against time 0, where the peak area at T0 was 100%. The elimination rate constant (h) was determined from the plot of ln (percent loss of compound) as a time function and equal to the minor value of the linear curve slope.

[4] = Pharmacokinetics and brain uptake in mice after i.p. administration; format: in vivo, mouse (Albino Swiss); details: mouse Albino Swiss, 10 mg/kg i.p.; for AUC(0-t): ip
Protocol: Compounds were administered to mice at a dose of 10 mg/kg i.p. Plasma and tissue samples were collected at 0.25, 0.50, 1.0, 2.0, 4.0, 6.0, and 24 h. Plasma and tissue samples from all drug-treated animals were thawed at room temperature prior to use. The standard protocol for sample preparation was used: 200 μL of acetonitrile was added to the Eppendorf tubes with 50 μL of studied plasma samples or tissue homogenate. Samples were mixed for 5 min on a mixer at 25 °C and 1400 rpm. The tubes were then centrifuged at 2000× g for 15 min at 4 °C. A total of 180 μL of each supernatant was transferred to a plate well. Finally, each sample was injected into the LC–MS column. Calibration curve serial dilution method: Plasma was spiked with a standard at different concentrations. Acetonitrile was added. After mixing and centrifugation, the supernatant was collected.
Chromatographic conditions. Plasma and tissue samples from all drug-treated animals at selected time points were analyzed using a previously developed nonvalidated LC–MS/MS method. […] The LC–MS analysis was carried out on a Bruker amaZon SL mass spectrometer using the positive/negative ion ESI mode. Chromatographic separation was achieved on an Ascentis Express C18 column (5 cm × 2.1 mm, 2.7 μM, Supelco Technologies) at room temperature with a thermostatted column oven. A gradient elution of eluents A (acetonitrile (LiChrosolv, Reag. Ph Eur) + 0.1% formic acid (Sigma Aldrich, 98–100%)) and B (water + 0.1% formic acid) were used for separation. The flow rate was set at 1 mL/min. The injection volume was 20 μL, and the time of injection was 4 min.
Mass spectrometric conditions. An ion trap mass spectrometer (Bruker amaZon SL, Bruker, Bremen, Germany) was equipped with an electrospray source operating in the positive/negative ion mode. Data were collected and processed using Bruker Quant Analysis (Bruker, Bremen, Germany) software. A quantification of the analytes was performed in the SIM mode.

[5] = test system: animal models of schizophrenia; details: cited from earlier work

T1 sequence (Q14831 35-915): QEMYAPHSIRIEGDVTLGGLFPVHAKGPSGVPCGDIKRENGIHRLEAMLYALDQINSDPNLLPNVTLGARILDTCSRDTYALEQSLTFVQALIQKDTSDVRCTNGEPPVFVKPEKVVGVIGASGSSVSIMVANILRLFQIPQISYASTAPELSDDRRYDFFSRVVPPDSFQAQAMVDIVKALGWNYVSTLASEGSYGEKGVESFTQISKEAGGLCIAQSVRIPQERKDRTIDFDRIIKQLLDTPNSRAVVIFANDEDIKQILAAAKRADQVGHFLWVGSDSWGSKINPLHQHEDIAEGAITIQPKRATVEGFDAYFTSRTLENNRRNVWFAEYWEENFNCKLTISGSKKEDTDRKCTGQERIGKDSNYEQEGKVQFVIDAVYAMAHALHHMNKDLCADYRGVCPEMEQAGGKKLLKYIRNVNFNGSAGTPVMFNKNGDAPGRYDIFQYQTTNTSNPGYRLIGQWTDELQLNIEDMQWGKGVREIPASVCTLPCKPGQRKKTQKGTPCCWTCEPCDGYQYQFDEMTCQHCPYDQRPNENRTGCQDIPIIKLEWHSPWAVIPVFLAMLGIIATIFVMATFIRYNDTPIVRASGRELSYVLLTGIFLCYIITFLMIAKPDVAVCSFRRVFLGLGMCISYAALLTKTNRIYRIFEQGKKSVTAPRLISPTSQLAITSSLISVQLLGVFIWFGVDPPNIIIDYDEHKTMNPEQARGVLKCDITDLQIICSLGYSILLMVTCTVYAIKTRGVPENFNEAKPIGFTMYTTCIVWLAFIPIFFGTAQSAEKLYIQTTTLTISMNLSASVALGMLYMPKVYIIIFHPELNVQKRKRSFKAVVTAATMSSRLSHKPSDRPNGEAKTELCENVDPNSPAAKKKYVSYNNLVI

Question: Which “% inhibition at maximal concentration” value ([1]; range 1 nM – 25 µM) does the source give for `COc1ccc(-c2cc3onc(-c4ccncc4)c3c(=O)n2C)cc1` [MMPIP, reference compound] here?
Answer: 100%

Question: And the IC50 ([1]; read-out: IC50 (CHO-K1, Figure S4))?
Answer: 270 nM

Question: What about the solubility kinetic at 1.5 h [2] of the same compound?
Answer: 5.6 µM (≈ 1.87 µg/mL)

Question: And the “MML (metabolic stability liver microsome mouse)” value [3]?
Answer: 49.78 % remaining after 60 min

Question: What about the AUC(0-t) ([4]; brain, read-out: AUC0-t, brain) of the same compound?
Answer: 8.98 µM·h

Question: And the AUC(0-t) ([4]; plasma, read-out: AUC0-t, plasma)?
Answer: 13.5 µM·h

Question: What about the “Cmax, brain” value ([4]; brain) of the same compound?
Answer: 5.42 µM/L

Question: And the “Tmax, plasma” value ([4]; plasma)?
Answer: 15 min

Question: And the “MK-801-induced disruptions in social interaction” value [5]?
Answer: not observed

Question: And the “prepulse inhibition (PPI)” value [5]?
Answer: not observed

Question: And the “activity in animal models of schizophrenia” value ([5]; mGlu7 NAMs)?
Answer: antipsychotic activity

— paper PMC9916658, “Design and Synthesis of New Quinazolin-4-one Derivatives with Negative mGlu7 Receptor Modulation Activity and Antipsychotic-Like Properties” (International Journal of Molecular Sciences, 2023)
